Experimental data: article PMC7365463, “Oxfendazole mediates macrofilaricidal efficacy against the filarial nematode Litomosoides sigmodontis in vivo and inhibits Onchocerca spec. motility in vitro” (PLoS Neglected Tropical Diseases, 2020)
Read-outs that look alike come from different tables or passages of the source.

Experiments:
Brugia pahangi [1] = system: Brugia pahangi; set-up: method as in Devaney 1985 (Ref. 8); conditions: 50L3, balb/c, SC 10 or 50 mg/kg 5 cons. days, 4 days p.i., necropsy 3-4 weeks p.t.; ref Devaney 1985 (Ref. 8); cited from earlier work
[2] = system: Acanthocheilonema viteae / Brugia pahangi; set-up: method as in Court 1988 (Ref. 10); conditions: 15Ad A.v. (SC) +15Ad B.p. (IP), jirds, 5 days p.i., necropsy 5 weeks p.t., ref Court 1988 (Ref. 10), cited from earlier work
Brugia malayi = system: Brugia malayi; set-up: method as in Maeda 1988 (Ref. 14); conditions: 150-200L3 (SC), jird, IP 20mg/kg 5 cons. days, 9 months p.i., necropsy 5 weeks p.t.; ref Maeda 1988 (Ref. 14); cited from earlier work
Brugia pahangi [3] = conditions: 100L3 (SC), cats, SC 100-400mg/kg x1, patent phase, necropsy 46-51 days p.t.; ref Denham 1979 (Ref. 4); cited from earlier work
[4] = system: L. sigmodontis microfilariae; assay: L. sigmodontis microfilariae-injected naïve mice; format: in vivo, Litomosoides sigmodontis; conditions: mice injected with 100,000 microfilariae, BID 2 x 12.5 mg/kg per os for 5 days
Protocol: To investigate the in vivo efficacy of oxfendazole on microfilariae, microfilariae were isolated from peripheral blood of L. sigmodontis-infected cotton rats according to Chandrashekar et al. (1984) using a sucrose percoll gradient. 100,000 microfilariae were injected into the tail vein of naïve mice as previously described. Microfilariae-injected mice were treated with a commercial formulation of oxfendazole (Dolthene) twice daily with 2 x 12.5 mg/kg per os. As a positive control, additional mice were treated with a single intraperitoneal dose of ivermectin (5 mg/kg) in DMSO/PEG400/H20dest with a ratio of 1:7:2 according to Halliday et al.. Control animals received no treatment.

mammalian tubulin [5] = system: mammalian tubulin; set-up: method as in PMID 6712717, PMID 1554382; conditions: cited from earlier work
[6] = system: Litomosoides sigmodontis adult worms; assay: L. sigmodontis-infected mice, adult worm burden; format: in vivo
Protocol: (Whatman 903 Protein […], Sigma-Aldrich, Germany). […] Mice were sacrificed at 75-78 dpi. […] The mice were anesthetized then sacrificed by bleeding (at MNHN) or by an overdose of isoflurane (at IMMIP). At the MNHN, the pleural cavity was washed 10 times with 1 ml of cold phosphate buffered saline (PBS) to collect filariae as previously described. At the IMMIP, the pleural cavity was washed with 1 ml of PBS. In both laboratories the remaining worms were isolated using forceps. The recovered L. sigmodontis adult worms were counted and analyzed by light microscopy to identify males and females.

[7] = Bioavailability in dog (in-house); conditions: in vivo, oral, in-house data at high dose of 25 mg/kg, read-out: Bioavailability (F)
From the text: Table 1 Human pharmacokinetic prediction for oxfendazole.

mammalian tubulin [8] = system: mammalian tubulin; set-up: method as in PMID 6712717, PMID 1554382; conditions: cited from earlier work; remark: listed apart in the source
[9] = set-up: method as in earlier work; conditions: in vivo, lack of potential for aneuploidy; cited from earlier work
[10] = system: Onchocerca volvulus pre-adult L5 worms; assay: O. volvulus pre-adult (L5) worm motility assay; conditions: read-out: IC50 of motility inhibition
Protocol: Cryopreserved O. volvulus L3 were thawed, washed and co-cultured with normal human PBMC as previously described. […] The L4 larvae were then transferred into a transwell (Sigma #CLS3472), ~10 L4 per transwell within a 24-well plate and over a monolayer comprised of Human Umbilical Vein Endothelial Cells (HUVEC; Lonza Inc., Allendale, NJ) seeded at a density of 1 x 10^4 cells per well. The larvae were cultured for 80 days using L4 complete media: 1:1 NCTC-109: MEM-alpha and EBM-2 (Clonetics EBM-2 Lonza# CC-3156) at a 60:40 ratio. […] Medium was exchanged 3 times a week and fresh HUVEC monolayers were prepared weekly. A week prior to performing the drug screening assay, the L4 day 80 that has molted to pre-adult worms, L5, were transferred from the transwells into a small petri dish containing fresh complete media. 7–10 L5 worms were retrieved from the petri dish and placed in new transwells containing a freshly prepared HUVEC monolayer. […] After 14 days of treatment, the drug containing media was replaced by complete media without drug. Continuing this assay for a further 19 days, the worms were supplied with fresh media every 2–3 days and the weekly use of fresh HUVEC monolayers. […] All drug concentrations were tested in duplicate. […] IC50 values were calculated using Graph Pad Prism v8.3.

[11] = human
[12] = set-up: method as in PMID 1687815; conditions: rat/sheep/cattle, published data; cited from earlier work
mouse lymphoma assay = system: mouse lymphoma assay; set-up: method as in earlier work; conditions: in vitro; cited from earlier work
L. loa microfilariae = system: L. loa microfilariae; set-up: method as in PMID 30926803; conditions: L. loa mouse model; cited from earlier work
[13] = mice, PO 2 x 2.5 mg/kg for 1 day, start 33 dpi, 75 dpi
[14] = mice, PO 2 x 2.5 mg/kg for 5 days, start 33 dpi, 75 dpi
[15] = mice, PO 2 x 2.5 mg/kg for 10 days, start 33 dpi, 75 dpi
[16] = mice, PO BID 2 x 1 mg/kg for 5 days from 35 dpi, necropsy 75 dpi
[17] = mice, PO BID 2 x 5 mg/kg for 5 days from 35 dpi, necropsy 75 dpi

Question: For `COC(=O)Nc1nc2cc(C(=O)c3ccc(F)cc3)ccc2[nH]1` [flubendazole], which “Reduction of worm burden” value (Brugia pahangi [1]) is on record?
Answer: Its value is 100%.

Question: And the “Reduction of worm burden” value ([2]; SC 50mg/kg 5 cons. days)?
Answer: The value was 50%.

Question: And the “Reduction of worm burden” value ([2]; SC 100mg/kg 5 cons. days)?
Answer: The value was 100%.

Question: What about the “Reduction of worm burden” value (Brugia malayi) of the same compound?
Answer: The value was 100%.

Question: And the “Reduction of worm burden” value (Brugia pahangi [3])?
Answer: The value was 100%.

Question: With `COC(=O)Nc1nc2ccc([S+]([O-])c3ccccc3)cc2[nH]1` (centres unmarked) [oxfendazole] as the compound, how does the “direct microfilaricidal effect in vivo” value [4] read?
Answer: Its value is “no direct microfilaricidal effect”.

Question: And the “affinity to mammalian tubulin” value (mammalian tubulin [5])?
Answer: The value was “weak affinity”.

Question: And the minimal efficacious concentration ([6]; based on subcutaneous treatment at 25 mg/kg in mice, pharmacokinetic analysis)?
Answer: The minimal efficacious concentration was “approximately 100 ng/ml”.

Question: And the macrofilaricidal efficacy ([6]; mice, BID oral 2 x 5.0 mg/kg for 10 consecutive days)?
Answer: The macrofilaricidal efficacy was “above 85%”.

Question: And the macrofilaricidal efficacy ([6]; mice, BID oral 2 x 12.5 mg/kg for 5 days)?
Answer: The macrofilaricidal efficacy was “above 85%”.

Question: And the median adult worms [6, 13]?
Answer: The median adult worms was 20 worms.

Question: And the “range of adult worms” value [6, 13]?
Answer: Its value is 1–47 worms.

Question: And the “reduction of the adult worm burden” value [6, 13]?
Answer: Its value is 0%.

Question: And the median adult worms [6, 14]?
Answer: Its median adult worms is 6.5 worms.

Question: And the “range of adult worms” value [6, 14]?
Answer: The value was 1–16 worms.

Question: And the “reduction of the adult worm burden” value [6, 14]?
Answer: The value was 23.5%.

Question: And the median adult worms [6, 15]?
Answer: Its median adult worms is 1 worm.

Question: And the “range of adult worms” value [6, 15]?
Answer: The value was 0–4 worms.

Question: And the “reduction of the adult worm burden” value [6, 15]?
Answer: The value was 87.2%.

Question: What about the “adult worm burden reduction” value [6, 16] of the same compound?
Answer: The value was 16.7%.

Question: What about the median adult worms [6, 16] of the same compound?
Answer: Its median adult worms is 5 adult worms.

Question: What about the “range of adult worms” value [6, 16] of the same compound?
Answer: The value was 1–12 worms.

Question: What about the “adult worm burden reduction” value [6, 17] of the same compound?
Answer: Its value is 100%.

Question: What about the median adult worms [6, 17] of the same compound?
Answer: The median adult worms was 0 adult worms.

Question: And the “range of adult worms” value [6, 17]?
Answer: Its value is 0–5 worms.

Question: What about the adult worm reduction ([6]; mice, PO BID 2 x 12.5 mg/kg for 5 days from 35 dpi, necropsy 78 dpi) of the same compound?
Answer: The adult worm reduction was 100%.

Question: And the “adult worm burden reduction” value ([6]; mice, PO BID 2 x 25 mg/kg for 5 days from 35 dpi, necropsy 75 dpi)?
Answer: Its value is 100%.

Question: And the macrofilaricidal outcome ([6]; mice, SC 1 mg/kg QD for 5 days from 35 dpi, necropsy 78 dpi)?
Answer: The macrofilaricidal outcome was “no significant reduction of the worm burden”.

Question: What about the macrofilaricidal outcome ([6]; mice, SC 5 mg/kg QD for 5 days from 35 dpi, necropsy 78 dpi) of the same compound?
Answer: Its macrofilaricidal outcome is “sterile cure was achieved in all mice except one”.

Question: And the macrofilaricidal outcome ([6]; mice, SC 25 mg/kg QD for 5 days from 35 dpi, necropsy 78 dpi)?
Answer: Its macrofilaricidal outcome is “Sterile cure was achieved”.

Question: What about the macrofilaricidal outcome ([6]; mice, single oral BID dosing, doses up to 125 mg/kg, start 33 dpi, 75 dpi) of the same compound?
Answer: The macrofilaricidal outcome was “did not lead to a significant reduction”.

Question: And the bioavailability [7]?
Answer: Its bioavailability is about 10%.

Question: What about the “inhibition of mammalian tubulin polymerization” value (mammalian tubulin [8]) of the same compound?
Answer: Its value is “poor inhibition”.

Question: What about the “rat micronucleus assay outcome” value [9] of the same compound?
Answer: Its value is “confirmed the in vitro results”.

Question: And the IC50 ([10]; 336 h, day 14 (14 days drug exposure))?
Answer: The IC50 was 7590 nM.

Question: And the IC50 ([10]; day 19 of culture (14 days drug, 5 days without drug))?
Answer: The IC50 was 28.6 nM.

Question: And the IC50 ([10]; day 33 of culture (14 days drug, 19 days without drug))?
Answer: Its IC50 is 10.2 nM.

Question: What about the clearance [11] of the same compound?
Answer: Its clearance is about 0.4 mL/min/kg.

Question: And the Vd ([11]; Vol. of Distribution (Vss), Final)?
Answer: The Vd was about 0.5 L/kg.

Question: And the CLhep predicted ([11]; hepatocytes)?
Answer: Its CLhep predicted is 0.4 mL/min/kg.

Question: What about the bioavailability ([11]; po) of the same compound?
Answer: Its bioavailability is 30%.

Question: What about the “Bioavailability (F)” value [12] of the same compound?
Answer: The value was over 50%.

Question: And the “toxicity in mouse lymphoma assay” value (mouse lymphoma assay)?
Answer: The value was “did not exhibit toxicity”.

Question: What about the “microfilaricidal efficacy against L. loa” value (L. loa microfilariae) of the same compound?
Answer: The value was “lacks such a microfilaricidal efficacy”.
